Data from patent US11969428B2, “Methods and pharmaceutical compositions for treating lymphoid malignancy” (priority 2011, dated 2024).

Legend:
Test in all cases: Ambit KinomeScan screening
Format in all cases: binding
Conditions in all cases: CAL-130 10 μM
PIK4CB = target: T1, PIK4CB (Homo sapiens, UniProt Q9UBF8)
T1 construct: unspecified tag; purchased Ambit (KinomeScan screening panel)
Outline: (§1)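 Displacement of tagged kinase from bait ligand on solid support was assessed using 10 μM CAL-130. Each value is the fraction of control binding retained, expressed in percent; a cutoff of >35% defines no hit.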

DCAMKL3 = target: T2, DCAMKL3 (Homo sapiens, UniProt Q9C098)
T2 construct: unspecified tag ("tagged kinases"); purchased Ambit (KinomeScan screening service)
Outline: as §1

CDC2L2 = target: T3, CDC2L2 (Homo sapiens, UniProt Q9UQ88)
T3 construct: purchased Ambit (KinomeScan screening)
Outline: as §1

PIP5K1A = target: T4, PIP5K1A (Homo sapiens, UniProt Q99755)
T4 construct: unspecified tag; purchased Ambit (KinomeScan screening panel)
Outline: as §1

CAMK2B = target: T5, CAMK2B (Homo sapiens, UniProt Q13554)
T5 construct: purchased Ambit (KinomeScan screening)
Outline: as §1

ERBB2 = target: T6, ERBB2 (Homo sapiens, UniProt P04626)
T6 construct: purchased Ambit (KinomeScan screening service)
Outline: as §1

PAK7 = target: T7, PAK7 (Homo sapiens, UniProt Q9P286)
T7 construct: unspecified tag ('tagged kinases'); purchased Ambit (KinomeScan screening)
Outline: as §1

MAP4K2 = target: T8, MAP4K2 (Homo sapiens, UniProt Q12851)
T8 construct: Ambit (KinomeScan screening)
Outline: as §1

CSNK1A1L = target: T9, CSNK1A1L (Homo sapiens, UniProt Q8N752)
T9 construct: purchased Ambit (KinomeScan screening service)
Outline: as §1

CDKL5 = target: T10, CDKL5 (Homo sapiens, UniProt O76039)
T10 construct: purchased Ambit (KinomeScan screening service)
Outline: as §1

PDPK1 = target: T11, PDPK1 (Homo sapiens, UniProt O15530)
T11 construct: unspecified tag ('tagged kinases'); purchased Ambit (KinomeScan screening)
Outline: as §1

MERTK = target: T12, MERTK (Homo sapiens, UniProt Q12866)
T12 construct: purchased Ambit (KinomeScan screening)
Outline: as §1

JNK1 = target: T13, JNK1 (Homo sapiens, UniProt P45983)
T13 construct: purchased Ambit (KinomeScan screening)
Outline: as §1

CSNK1E = target: T14, CSNK1E (Homo sapiens, UniProt P49674)
T14 construct: purchased Ambit (KinomeScan screening service)
Outline: as §1

DDR1 = target: T15, DDR1 (Homo sapiens, UniProt Q08345)
T15 construct: unspecified tag ("tagged kinases"); purchased Ambit (KinomeScan screening service)
Outline: as §1

CDKL2 = target: T16, CDKL2 (Homo sapiens, UniProt Q92772)
T16 construct: purchased Ambit (KinomeScan screening service)
Outline: as §1

CLK3 = target: T17, CLK3 (Homo sapiens, UniProt P49761)
T17 construct: purchased Ambit (KinomeScan screening service)
Outline: as §1

MAPKAPK2 = target: T18, MAPKAPK2 (Homo sapiens, UniProt P49137)
T18 construct: Ambit (KinomeScan screening)
Outline: as §1

KIT(V559D, T670I) = target: T19, KIT(V559D, T670I) (Homo sapiens, UniProt P10721, T670I/V559D)
T19 construct: unspecified tag ('tagged kinases'); purchased Ambit (KinomeScan screening)
Outline: as §1

FES = target: T20, FES (Homo sapiens, UniProt P07332)
T20 construct: unspecified tag ("tagged kinases"); purchased Ambit (KinomeScan screening service)
Outline: as §1

IKK-[…] = target: T21, IKK-[…] (Homo sapiens, UniProt Q14164)
T21 construct: Ambit (KinomeScan screening)
Outline: as §1

TESK1 = target: T22, TESK1 (Homo sapiens, UniProt Q15569)
T22 construct: unspecified tag (tagged kinase); purchased Ambit (KinomeScan screening)
Outline: as §1

CSNK1G3 = target: T23, CSNK1G3 (Homo sapiens, UniProt Q9Y6M4)
T23 construct: purchased Ambit (KinomeScan screening service)
Outline: as §1

DAPK3 = target: T24, DAPK3 (Homo sapiens, UniProt O43293)
T24 construct: unspecified tag ("tagged kinases"); purchased Ambit (KinomeScan screening service)
Outline: as §1

MRCKA = target: T25, MRCKA (Homo sapiens, UniProt Q5VT25)
T25 construct: unspecified tag ('tagged kinases'); purchased Ambit (KinomeScan screening)
Outline: as §1

CAMK1G = target: T26, CAMK1G (Homo sapiens, UniProt Q96NX5)
T26 construct: unspecified tag ("tagged kinases"); purchased Ambit (KinomeScan screening)
Outline: as §1

KIT(V559D) = target: T27, KIT(V559D) (Homo sapiens, UniProt P10721, V559D)
T27 construct: purchased Ambit (KinomeScan screening)
Outline: as §1

[1] = target: T28, EGFR(L747-E749DEL, A750P) (Homo sapiens, UniProt P00533, A750P/DEL747-749)
T28 construct: unspecified tag; purchased Ambit (KinomeScan screening service)
Outline: as §1

MARK1 = target: T29, MARK1 (Homo sapiens, UniProt Q9P0L2)
T29 construct: Ambit (KinomeScan screening)
Outline: as §1

NIM1 = target: T30, NIM1 (Homo sapiens, UniProt Q8IY84)
T30 construct: purchased Ambit (KinomeScan screening service)
Outline: as §1

ABL1(M351T) = target: T31, ABL1(M351T) (Homo sapiens, UniProt P00519, M351T)
T31 construct: unspecified tag ("tagged kinases"); purchased Ambit (KinomeScan screening)
Outline: as §1

FYN = target: T32, FYN (Homo sapiens, UniProt P06241)
T32 construct: unspecified tag ('tagged kinases'); purchased Ambit (KinomeScan screening service)
Outline: as §1

CSNK1G2 = target: T33, CSNK1G2 (Homo sapiens, UniProt P78368)
T33 construct: purchased Ambit (KinomeScan screening service)
Outline: as §1

YES = target: T34, YES (Homo sapiens, UniProt P07947)
T34 construct: purchased Ambit (KinomeScan screening service)
Outline: as §1

PIP5K2B = target: T35, PIP5K2B (Homo sapiens, UniProt P78356)
T35 construct: unspecified tag; purchased Ambit (KinomeScan screening panel)
Outline: as §1

DYRK1A = target: T36, DYRK1A (Homo sapiens, UniProt Q13627)
T36 construct: unspecified tag ("tagged kinases"); purchased Ambit (KinomeScan screening service)
Outline: as §1

Measured: Percent of Control Binding

T22 sequence (Q15569 whole entry): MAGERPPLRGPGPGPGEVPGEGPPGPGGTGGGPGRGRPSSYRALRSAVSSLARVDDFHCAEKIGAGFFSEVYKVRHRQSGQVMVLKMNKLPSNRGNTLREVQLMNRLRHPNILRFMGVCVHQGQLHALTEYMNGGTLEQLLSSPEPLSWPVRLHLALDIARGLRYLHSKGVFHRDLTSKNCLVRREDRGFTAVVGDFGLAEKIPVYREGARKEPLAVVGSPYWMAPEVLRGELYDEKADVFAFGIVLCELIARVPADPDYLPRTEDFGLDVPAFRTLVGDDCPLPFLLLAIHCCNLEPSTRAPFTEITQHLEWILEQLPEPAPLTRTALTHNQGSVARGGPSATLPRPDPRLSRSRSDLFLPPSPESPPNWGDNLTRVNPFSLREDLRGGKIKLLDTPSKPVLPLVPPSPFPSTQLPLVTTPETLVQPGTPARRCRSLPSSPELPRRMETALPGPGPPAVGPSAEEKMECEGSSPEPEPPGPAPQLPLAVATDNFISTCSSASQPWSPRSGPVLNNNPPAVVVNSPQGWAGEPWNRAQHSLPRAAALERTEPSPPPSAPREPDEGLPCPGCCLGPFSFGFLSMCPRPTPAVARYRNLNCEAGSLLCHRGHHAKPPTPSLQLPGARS
T4 sequence (Q99755 whole entry): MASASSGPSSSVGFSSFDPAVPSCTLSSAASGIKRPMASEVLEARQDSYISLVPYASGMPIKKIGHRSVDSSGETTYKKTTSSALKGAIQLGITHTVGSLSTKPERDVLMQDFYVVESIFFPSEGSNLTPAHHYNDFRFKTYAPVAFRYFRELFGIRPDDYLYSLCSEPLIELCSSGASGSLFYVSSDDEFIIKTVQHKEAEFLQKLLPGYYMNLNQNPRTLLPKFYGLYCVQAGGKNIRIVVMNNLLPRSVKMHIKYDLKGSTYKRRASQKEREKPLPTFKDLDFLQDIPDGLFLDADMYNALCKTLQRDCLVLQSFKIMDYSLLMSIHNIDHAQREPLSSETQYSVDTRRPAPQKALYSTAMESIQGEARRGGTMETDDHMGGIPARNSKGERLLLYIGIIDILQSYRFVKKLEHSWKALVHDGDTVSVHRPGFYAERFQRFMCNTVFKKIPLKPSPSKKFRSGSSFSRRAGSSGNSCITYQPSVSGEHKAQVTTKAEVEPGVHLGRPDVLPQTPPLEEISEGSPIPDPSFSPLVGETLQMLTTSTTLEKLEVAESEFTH
T34 sequence (P07947 whole entry): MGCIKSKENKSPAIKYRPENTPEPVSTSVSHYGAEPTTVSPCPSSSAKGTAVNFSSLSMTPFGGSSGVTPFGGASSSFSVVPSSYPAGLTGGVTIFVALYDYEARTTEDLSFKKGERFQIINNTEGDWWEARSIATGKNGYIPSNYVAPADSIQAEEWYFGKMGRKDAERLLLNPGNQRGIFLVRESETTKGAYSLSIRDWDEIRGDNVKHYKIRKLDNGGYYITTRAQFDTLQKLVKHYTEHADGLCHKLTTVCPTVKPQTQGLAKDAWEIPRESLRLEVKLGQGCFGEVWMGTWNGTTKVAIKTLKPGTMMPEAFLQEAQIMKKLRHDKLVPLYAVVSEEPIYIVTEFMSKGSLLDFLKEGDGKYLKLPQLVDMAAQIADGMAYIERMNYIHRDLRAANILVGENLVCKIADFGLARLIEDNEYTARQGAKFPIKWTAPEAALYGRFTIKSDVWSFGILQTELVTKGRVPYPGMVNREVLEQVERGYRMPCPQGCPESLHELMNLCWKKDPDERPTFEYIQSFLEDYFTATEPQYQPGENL
T23 sequence (Q9Y6M4 whole entry): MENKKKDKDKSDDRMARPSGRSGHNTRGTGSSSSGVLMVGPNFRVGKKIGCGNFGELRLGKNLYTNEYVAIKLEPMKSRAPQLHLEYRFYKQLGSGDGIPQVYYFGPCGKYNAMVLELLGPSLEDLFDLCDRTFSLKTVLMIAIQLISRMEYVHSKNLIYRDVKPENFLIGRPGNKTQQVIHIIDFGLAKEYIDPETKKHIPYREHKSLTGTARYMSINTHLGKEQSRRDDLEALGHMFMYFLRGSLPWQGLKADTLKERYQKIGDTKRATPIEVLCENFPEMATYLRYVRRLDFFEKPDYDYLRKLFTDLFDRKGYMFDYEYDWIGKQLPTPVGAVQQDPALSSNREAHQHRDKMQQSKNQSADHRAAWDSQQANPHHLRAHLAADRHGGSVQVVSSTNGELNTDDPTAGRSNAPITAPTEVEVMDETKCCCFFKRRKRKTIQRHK
T1 sequence (Q9UBF8 whole entry): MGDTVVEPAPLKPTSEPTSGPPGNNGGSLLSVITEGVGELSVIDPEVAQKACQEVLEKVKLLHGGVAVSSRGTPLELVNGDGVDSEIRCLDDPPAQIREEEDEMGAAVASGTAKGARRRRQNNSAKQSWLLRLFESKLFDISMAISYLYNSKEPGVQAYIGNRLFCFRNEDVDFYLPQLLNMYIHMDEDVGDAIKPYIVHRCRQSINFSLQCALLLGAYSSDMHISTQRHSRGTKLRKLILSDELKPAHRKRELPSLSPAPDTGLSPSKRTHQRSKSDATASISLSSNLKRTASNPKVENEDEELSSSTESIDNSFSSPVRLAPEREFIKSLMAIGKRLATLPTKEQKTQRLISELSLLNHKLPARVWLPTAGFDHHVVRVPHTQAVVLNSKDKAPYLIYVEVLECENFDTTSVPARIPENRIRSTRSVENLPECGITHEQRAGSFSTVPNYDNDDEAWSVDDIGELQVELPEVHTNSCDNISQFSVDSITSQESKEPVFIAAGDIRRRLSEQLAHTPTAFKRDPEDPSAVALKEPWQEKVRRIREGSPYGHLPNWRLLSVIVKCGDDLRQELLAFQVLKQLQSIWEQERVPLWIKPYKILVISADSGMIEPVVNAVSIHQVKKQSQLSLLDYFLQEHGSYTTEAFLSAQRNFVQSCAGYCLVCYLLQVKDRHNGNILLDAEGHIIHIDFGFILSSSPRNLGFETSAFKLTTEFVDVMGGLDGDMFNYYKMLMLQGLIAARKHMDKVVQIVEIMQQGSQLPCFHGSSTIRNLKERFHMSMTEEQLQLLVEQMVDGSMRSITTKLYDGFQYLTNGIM
T30 sequence (Q8IY84 whole entry): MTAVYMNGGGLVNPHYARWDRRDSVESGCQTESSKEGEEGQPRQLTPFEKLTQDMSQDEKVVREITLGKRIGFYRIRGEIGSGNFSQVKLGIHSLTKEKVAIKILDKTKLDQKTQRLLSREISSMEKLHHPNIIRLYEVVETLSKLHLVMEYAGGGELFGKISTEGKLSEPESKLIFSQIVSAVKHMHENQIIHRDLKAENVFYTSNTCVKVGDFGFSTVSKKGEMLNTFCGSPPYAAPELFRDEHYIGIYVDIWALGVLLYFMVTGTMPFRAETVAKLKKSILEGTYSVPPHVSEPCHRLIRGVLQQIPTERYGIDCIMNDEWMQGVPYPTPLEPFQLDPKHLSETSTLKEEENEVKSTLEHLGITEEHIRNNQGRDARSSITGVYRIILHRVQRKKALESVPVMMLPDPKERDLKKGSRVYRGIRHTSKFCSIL
T17 sequence (P49761 whole entry): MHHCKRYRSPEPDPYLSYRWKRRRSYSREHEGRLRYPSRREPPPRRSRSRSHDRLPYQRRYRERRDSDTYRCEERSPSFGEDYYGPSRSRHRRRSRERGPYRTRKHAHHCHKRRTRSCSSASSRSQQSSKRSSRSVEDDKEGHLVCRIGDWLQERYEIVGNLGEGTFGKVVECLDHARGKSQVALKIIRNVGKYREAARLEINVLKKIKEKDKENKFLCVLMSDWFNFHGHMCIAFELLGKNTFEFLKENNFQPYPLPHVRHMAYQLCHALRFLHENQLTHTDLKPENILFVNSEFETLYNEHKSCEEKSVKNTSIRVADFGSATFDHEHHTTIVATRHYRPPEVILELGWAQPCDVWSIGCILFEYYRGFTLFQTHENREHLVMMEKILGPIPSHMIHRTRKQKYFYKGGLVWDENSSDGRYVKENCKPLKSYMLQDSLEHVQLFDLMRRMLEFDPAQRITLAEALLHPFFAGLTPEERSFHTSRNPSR
T21 sequence (Q14164 whole entry): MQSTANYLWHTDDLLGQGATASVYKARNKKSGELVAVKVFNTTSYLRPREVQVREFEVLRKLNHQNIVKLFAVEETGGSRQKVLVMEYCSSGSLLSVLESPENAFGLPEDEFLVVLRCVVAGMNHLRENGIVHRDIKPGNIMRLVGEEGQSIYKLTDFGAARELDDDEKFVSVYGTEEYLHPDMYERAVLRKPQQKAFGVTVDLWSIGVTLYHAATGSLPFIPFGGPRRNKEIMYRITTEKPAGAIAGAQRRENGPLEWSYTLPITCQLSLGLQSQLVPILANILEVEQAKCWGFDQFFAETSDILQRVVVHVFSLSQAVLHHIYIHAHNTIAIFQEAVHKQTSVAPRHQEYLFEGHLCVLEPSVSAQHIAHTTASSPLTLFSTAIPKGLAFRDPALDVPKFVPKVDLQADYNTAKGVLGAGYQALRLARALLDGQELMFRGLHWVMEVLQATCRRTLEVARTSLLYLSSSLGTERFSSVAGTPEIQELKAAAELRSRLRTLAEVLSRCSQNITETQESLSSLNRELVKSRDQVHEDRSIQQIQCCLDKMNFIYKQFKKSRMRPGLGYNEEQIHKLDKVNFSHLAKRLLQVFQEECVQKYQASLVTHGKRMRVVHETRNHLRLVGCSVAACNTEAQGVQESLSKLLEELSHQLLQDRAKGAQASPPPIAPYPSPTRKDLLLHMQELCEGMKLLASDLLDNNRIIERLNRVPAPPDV
T9 sequence (Q8N752 whole entry): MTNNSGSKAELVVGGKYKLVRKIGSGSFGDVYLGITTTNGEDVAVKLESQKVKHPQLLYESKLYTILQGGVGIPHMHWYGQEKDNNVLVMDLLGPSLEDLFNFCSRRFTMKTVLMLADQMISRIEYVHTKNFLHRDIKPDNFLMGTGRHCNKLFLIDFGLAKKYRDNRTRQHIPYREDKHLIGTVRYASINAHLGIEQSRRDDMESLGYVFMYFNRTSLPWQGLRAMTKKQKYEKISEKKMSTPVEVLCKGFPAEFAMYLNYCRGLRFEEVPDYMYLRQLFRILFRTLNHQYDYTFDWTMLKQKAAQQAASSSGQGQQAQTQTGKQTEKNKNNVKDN

Cc1ccccc1-n1c(C(C)Nc2nc(N)nc3nc[nH]c23)nc2cccc(C)c2c1=O (stereo not drawn) [CAL-130]
100%: PIK4CB | DCAMKL3 | CDC2L2 | PIP5K1A | CAMK2B | ERBB2 | PAK7 | MAP4K2 | CSNK1A1L | CDKL5 | PDPK1 | MERTK | JNK1 | CSNK1E | DDR1 | CDKL2 | CLK3 | MAPKAPK2 | KIT(V559D, T670I) | FES | IKK-[…] | TESK1 | CSNK1G3 | DAPK3 | MRCKA | CAMK1G | KIT(V559D) | [1] | MARK1 | NIM1 | ABL1(M351T) | FYN | CSNK1G2 | YES | PIP5K2B | DYRK1A
